Test results from US7153869B2, “Substituted amino acids as erythropoietin mimetics” (priority 1998, dated 2006).
Like-named read-outs stand apart in the source and are kept apart here.

Target: T1, EBP-Ig (N-terminal 225 amino acids of the human EPO receptor joined to an Ig heavy chain) (Homo sapiens, UniProt P19235)
T1 construct: Ig heavy chain (fusion partner); made in house; host or cells: NSO cells (secreted into conditioned media)
T1 sequence (P19235 25-250 limits assumed): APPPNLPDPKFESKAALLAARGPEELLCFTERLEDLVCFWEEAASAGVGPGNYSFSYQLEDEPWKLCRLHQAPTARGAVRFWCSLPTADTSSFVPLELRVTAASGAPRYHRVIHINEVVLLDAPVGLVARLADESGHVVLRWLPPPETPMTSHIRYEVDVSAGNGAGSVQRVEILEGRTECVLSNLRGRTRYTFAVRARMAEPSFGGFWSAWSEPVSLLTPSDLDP
Test: Inhibition of [125I]EPO binding to immobilized EBP-Ig (EPO binding protein-Ig), scintillation Flash plate competition assay
Conditions: for IC30 μM (Inhibition of EPO binding to EBP-Ig): 0–500 μM test compound; for % inh @ 50 μM (Inhibition of EPO binding to EBP-Ig): 50 μM test compound, average % inhibition

[1] = read-out: IC50, μM (Inhibition of EPO binding to EBP-Ig), 0.5 nM [125I]EPO, concentration reducing corrected total binding to 50%
[2] = read-out: % inh @ 50 μM (Inhibition of EPO binding to EBP-Ig)

N=C(N)NCCCC(C(=O)O)N(CC=Cc1cccs1)CC=Cc1cccs1 (centres unmarked) [compound 49]
EPO/EBP-Ig % inh @ 50 μM (Table 3, 50 μM): 1%

CC(C)(C)OC[C@@H](C(=O)O)N(C/C=C/c1cccc(Oc2cccc(C(F)(F)F)c2)c1)C/C=C/c1cccc(Oc2cccc(C(F)(F)F)c2)c1 [compound 303]
EPO/EBP-Ig % inh @ 50 μM (50 μM compound, Table 16A): 21%

COC(=O)C(CCCCN)N(Cc1cccc(OCc2ccccc2)c1)Cc1cccc(OCc2ccccc2)c1 (centres unmarked) [compound 112]
IC30 μM (Inhibition of EPO binding to EBP-Ig) (0.5 nM [125I]EPO): 2 µM | % inh @ 50 μM (Inhibition of EPO binding to EBP-Ig) (0.5 nM [125I]EPO): 59% | EPO/EBP-Ig % inh @ 50 μM (Table 7, 50 μM): 59% | IC50 [1]: 10 µM

O=C(O)CCC(C(=O)O)N(C/C=C/c1ccc(NC(=O)C(F)(F)C(F)(F)F)cc1)Cc1ccc(OCc2ccccc2)cc1 (centres unmarked) [compound 84]
EPO/EBP-Ig % inh @ 50 μM (Table 5, 50 μM): 14%

CC(=O)O.COC(=O)[C@H](CO)N(C/C=C/c1ccc(-c2ccccc2)cc1)C/C=C/c1ccc(-c2ccccc2)cc1 [compound 295]
EPO/EBP-Ig % inh @ 50 μM (50 μM compound, Table 16A): 10%

COC(=O)C(CCCCN)N(C/C=C/c1cccc(Oc2ccccc2)c1)Cc1cccc(Oc2ccccc2)c1 (centres unmarked) [compound 137]
IC50: 30 µM | IC30 μM (Inhibition of EPO binding to EBP-Ig) (0.5 nM [125I]EPO): 5 µM | inhibition at 50 µM [2]: 60%

COC(=O)[C@H](CCC(=O)OC(C)(C)C)NC/C=C/c1ccc2ccccc2c1 [compound 333]
EPO/EBP-Ig % inh @ 50 μM (50 μM compound, Table 19A): 16%

CC(C)(C)OC[C@@H](C(=O)O)N(C/C=C/c1cccc(Oc2ccc(Cl)c(Cl)c2)c1)C/C=C/c1cccc(Oc2ccc(Cl)c(Cl)c2)c1 [compound 302]
EPO/EBP-Ig % inh @ 50 μM (50 μM compound, Table 16A): 30%

Cc1ccc(Oc2cccc(CN(Cc3cccc(NCc4cccc(Cl)c4)c3)C(CC(=O)O)C(=O)O)c2)cc1 (centres unmarked) [compound 71]
EPO/EBP-Ig % inh @ 50 μM (Table 4, 50 μM): −6%

COC(=O)[C@H](C)NC/C=C/c1ccccc1 [compound 372]
EPO/EBP-Ig % inh @ 50 μM (50 μM compound): 0%

NCCCCC(C(=O)NCCc1ccccc1)N(CC=Cc1ccccc1)CC=Cc1ccccc1 (centres unmarked) [compound 227]
IC30 μM (Inhibition of EPO binding to EBP-Ig) (0.5 nM [125I]EPO): 20 µM | inhibition at 50 µM [2]: 48% | inhibition at 50 µM (read-out: EPO/EBP-Ig % inh @ 50 μM, 50 μM compound, Table 10): 48% | IC50 [1]: 50 µM

O=C(NCCCCC(C(=O)O)N(C/C=C/c1ccccc1)C/C=C/c1ccccc1)OCc1ccccc1 (centres unmarked) [compound 172]
EPO/EBP-Ig % inh @ 50 μM (50 μM compound, Table 9): 15%

CC(C)(C)OC(=O)C(CCCCNC(=O)OCc1ccccc1)N(C/C=C/c1ccccc1)C/C=C/c1ccccc1 (centres unmarked) [compound 173]
EPO/EBP-Ig % inh @ 50 μM (50 μM compound, Table 9): 5%

COC(=O)c1cccc(C=CCNC(Cc2ccc(OC)cc2)C(=O)OC)c1 (centres unmarked) [compound 363]
IC30 μM (Inhibition of EPO binding to EBP-Ig) (0.5 nM [125I]EPO): 35 µM | inhibition at 50 µM [2]: 33% | inhibition at 50 µM (read-out: EPO/EBP-Ig % inh @ 50 μM, 50 μM compound): 33% | IC50 [1]: 220 µM

CC(C)(C)OC(=O)NCCCCC(C(=O)NCCOCCOCCNC(=O)C(CCCCNC(=O)OC(C)(C)C)N(Cc1ccc(OCc2ccccc2)cc1)Cc1ccc(OCc2ccccc2)cc1)N(Cc1ccc(OCc2ccccc2)cc1)Cc1ccc(OCc2ccccc2)cc1 (centres unmarked) [compound 260]
EPO/EBP-Ig % inh @ 50 μM (50 μM compound, Table 13): −12%

NCCCCC(C(=O)NCc1ccc(OCC=Cc2ccccc2)cc1)N(CC=Cc1ccccc1)CC=Cc1ccccc1 (centres unmarked) [compound 220]
IC30 μM (Inhibition of EPO binding to EBP-Ig) (0.5 nM [125I]EPO): 30 µM | EPO/EBP-Ig % inh @ 50 μM (50 μM compound, Table 10): 45% | % inh @ 50 μM (Inhibition of EPO binding to EBP-Ig) (0.5 nM [125I]EPO): 45% | IC50 [1]: 50 µM

COC(=O)[C@H](CO)NC/C=C/c1cccc(Oc2cccc(C(F)(F)F)c2)c1.O=C(O)C(F)(F)F [compound 344]
EPO/EBP-Ig % inh @ 50 μM (50 μM compound, Table 20A): 4%

Cc1ccc(S(=O)(=O)Nc2ccc(/C=C/CN(Cc3ccc(OCc4ccccc4)cc3)C(CCC(=O)O)C(=O)O)cc2)cc1 (centres unmarked) [compound 87]
EPO/EBP-Ig % inh @ 50 μM (Table 5, 50 μM): 23%

COC(=O)[C@H](Cc1ccccc1)NC/C=C/c1ccccc1 [compound 360]
EPO/EBP-Ig % inh @ 50 μM (50 μM compound): 18%

CC(=O)O.COC(=O)CC(NCC=Cc1cccc(C(=O)OC)c1)C(=O)OC (centres unmarked) [compound 366]
IC30 μM (Inhibition of EPO binding to EBP-Ig) (0.5 nM [125I]EPO): 65 µM | EPO/EBP-Ig % inh @ 50 μM (50 μM compound): 38% | % inh @ 50 μM (Inhibition of EPO binding to EBP-Ig) (0.5 nM [125I]EPO): 38%

CC(C)(CC(=O)O)CC(=O)NCCCCC(C(=O)NCCOCCOCCNC(=O)C(CCCCNC(=O)CC(C)(C)CC(=O)O)N(Cc1ccc(OCc2ccccc2)cc1)Cc1ccc(OCc2ccccc2)cc1)N(Cc1ccc(OCc2ccccc2)cc1)Cc1ccc(OCc2ccccc2)cc1 (centres unmarked) [compound 264]
IC30 μM (Inhibition of EPO binding to EBP-Ig) (0.5 nM [125I]EPO): 1.5 µM | EPO/EBP-Ig % inh @ 50 μM (50 μM compound, Table 13): 89% | % inh @ 50 μM (Inhibition of EPO binding to EBP-Ig) (0.5 nM [125I]EPO): 89% | IC50 [1]: 8 µM

O=C(O)CCCC(=O)Nc1ccc(/C=C/CN(Cc2ccc(OCc3ccccc3)cc2)C(CCC(=O)O)C(=O)O)cc1 (centres unmarked) [compound 83]
EPO/EBP-Ig % inh @ 50 μM (Table 5, 50 μM): 18%

COC(=O)C(CCCCN)N(Cc1ccc(OCc2ccccc2)cc1)Cc1cccc(NC(=O)c2ccc(C)cc2)c1 (centres unmarked) [compound 118]
IC50: 10 µM | IC30 μM (Inhibition of EPO binding to EBP-Ig) (0.5 nM [125I]EPO): 2 µM | inhibition at 50 µM [2]: 36% | inhibition at 50 µM (read-out: EPO/EBP-Ig % inh @ 50 μM, Table 7, 50 μM): 36%

COC(=O)[C@H](COC(C)(C)C)NC/C=C/c1cccc(Oc2ccc(C(C)(C)C)cc2)c1 [compound 356]
EPO/EBP-Ig % inh @ 50 μM (50 μM compound, Table 20A): 23%

O=C(O)CC(C(=O)O)N(CC=Cc1cccs1)CC=Cc1cccs1 (centres unmarked) [compound 53]
EPO/EBP-Ig % inh @ 50 μM (Table 3, 50 μM): 14%

CC(=O)O.COC(=O)c1cccc(/C=C/CN[C@@H](Cc2ccccc2)C(=O)OC)c1 [compound 361]
EPO/EBP-Ig % inh @ 50 μM (50 μM compound): 24%

COC(=O)[C@H](Cc1c[nH]c2ccccc12)NC/C=C/c1ccccc1 [compound 364]
EPO/EBP-Ig % inh @ 50 μM (50 μM compound): 16%

COc1ccc(CCNC(=O)C(CCCCN)N(C/C=C/c2ccc(-c3ccccc3)cc2)C/C=C/c2ccc(-c3ccccc3)cc2)cc1 (centres unmarked) [compound 238]
EPO/EBP-Ig % inh @ 50 μM (50 μM compound, Table 10): 39% | % inh @ 50 μM (Inhibition of EPO binding to EBP-Ig) (0.5 nM [125I]EPO): 39%

COC(=O)[C@H](CCC(=O)OC(C)(C)C)NC/C=C/c1ccc(-c2ccccc2)cc1 [compound 335]
EPO/EBP-Ig % inh @ 50 μM (50 μM compound, Table 19A): 25%

COC(=O)C(CCCCN)N(Cc1ccc(OCc2ccccc2)cc1)Cc1cccc(NC(=O)c2ccc3ccccc3c2)c1 (centres unmarked) [compound 121]
IC30 μM (Inhibition of EPO binding to EBP-Ig) (0.5 nM [125I]EPO): 6 µM | % inh @ 50 μM (Inhibition of EPO binding to EBP-Ig) (0.5 nM [125I]EPO): 45% | EPO/EBP-Ig % inh @ 50 μM (Table 7, 50 μM): 45%

O=C(O)CCC(C(=O)O)N(C/C=C/c1ccc(NC(=O)C(F)(F)F)cc1)Cc1ccc(OCc2ccccc2)cc1 (centres unmarked) [compound 85]
EPO/EBP-Ig % inh @ 50 μM (Table 5, 50 μM): 20%

COC(=O)[C@H](CCC(=O)OC(C)(C)C)NC/C=C/c1cccc(Oc2ccc(Cl)c(Cl)c2)c1 [compound 336]
EPO/EBP-Ig % inh @ 50 μM (50 μM compound, Table 19A): 32%

COc1ccc(CCNC(=O)C(CCCCNC(=O)Nc2ccc(Oc3ccccc3)cc2)N(C/C=C/c2cccc(Oc3ccccc3)c2)C/C=C/c2cccc(Oc3ccccc3)c2)cc1 (centres unmarked) [compound 232]
EPO/EBP-Ig % inh @ 50 μM (50 μM compound, Table 10): 14%

O=C(O)C(CO)NCC=Cc1cccc(Oc2ccccc2)c1 (centres unmarked) [cpd 347, N-(3-phenoxycinnamyl)Ser-OH]
EPO/EBP-Ig % inh @ 50 μM (50 μM compound, Table 20A): 23%
